Measurements as given in patent publication EP4786484A1, “CYCLIC PEPTIDE COMPOUND AND USE THEREOF” (Shenzhen Zhongge Biological Technology Co., Ltd., priority 2023, dated 2026).
Where “and” joins values, the source holds several entries; their conditions need not be identical. Equal entries are not always repeated. Residues, ends and D or L forms follow the SMILES beside them.

Assays:
[1] = system: Collagen I (type I collagen); experiment: Collagen I elevation effect in fibroblasts (ELISA); type: cell-based, human; parameters: Collagen I elevation effect in the fibroblasts: unit not given here; conditions: 1 µM, 24 h; for Collagen I elevation effect in the fibroblasts: ELISA, Blank control (BC) 35.6; for type I collagen (Collagen I) content compared to the BC: result in words
Text: (§1) B. Collagen I (type I collagen) elevation effect in fibroblasts, hyaluronic acid (HA) elevation effect in fibroblasts, and elastin (ELN) elevation effect in fibroblasts
(§2) Test materials: Fibroblasts of human origin (Guangdong Boxi Biotechnology Co., Ltd., Lot No. Fb20081902), DMEM culture medium (Gibco, 23042301, expiration date 230522), PBS (Solarbio, P1010), TGF-β1 (Peprotech, 230504), Collagen I ELISA Kit (Cusabio, B21025824), Elastin ELISA kit (Abcam, GR3446070-2), HA ELISA kit (RD, P325066). CO2 incubator (Thermo, 1501), super-clean bench (AIRTECH, SW-CJ-1F), microplate reader (BioTek, Epoch).
(§3) Test methods: • 1) Inoculation: After cell resuscitation, the cells were inoculated into 6-well plates when the plating rate reached around 60%, and were incubated overnight in an incubator (37°C, 5% CO2). • 2) Formulation of solutions: The cyclic peptide compounds in the sample group, PC2 (Biotinoyl-GHK, [drawing 2] ) and PC3 [drawing 3] in the positive reference group were all at the concentration of 1 µM, and the test substance working solutions were formulated. Only the cell culture medium was added for the blank control group (BC). • 3) Administration: When the cell plating rate in the 6-well plates reached 40% to 60%, administration was performed at 2 mL per well. 3 duplicate wells were set for each group. Incubation was performed in an incubator (37°C, 5% CO2) for 24 h. • 4) ELISA assay: The ELISA assay was performed according to the instructions of the ELISA kit, with the detection indicators being Collagen I elevation effect in the fibroblasts, HA elevation effect in the fibroblasts, and elastin elevation effect in the fibroblasts.

elastin (ELN) = experiment: Elastin (ELN) elevation effect in fibroblasts (ELISA); type: cell-based, human; parameters: Elastin elevation effect in the fibroblasts: unit not given here; conditions: 1 µM, 24 h; for Elastin elevation effect in the fibroblasts: ELISA, Blank control (BC) 756.52; for elastin content compared to the BC: result in words
Text: as §1, §2, §3

hyaluronic acid (HA) = experiment: Hyaluronic acid (HA) elevation effect in fibroblasts (ELISA); type: cell-based, human; parameters: HA elevation effect in the fibroblasts: unit not given here; conditions: 1 µM, 24 h; for HA elevation effect in the fibroblasts: ELISA, Blank control (BC) 1402.44; for hyaluronic acid (HA) content compared to the BC: result in words
Text: as §1, §2, §3

[2] = system: Fibroblasts of human origin; experiment: Fibroblast cytotoxicity test (MTT); type: cell-based; conditions: Positive control 10% DMSO, 24 h, 1440 min
Procedure: A. Fibroblast cytotoxicity test
Test materials: Fibroblasts of human origin (Guangdong Boxi Biotechnology Co., Ltd., Lot No. Fb20081902), DMEM culture medium (Gibco, 23042301, expiration date on 230522), PBS (Solarbio, P1010), MTT (Sigma, M5655), DMSO (Sigma, D4540-1L), CO2 incubator (Thermo, 150I), super-clean bench (AIRTECH, SW-CJ-1F), inverted microscope (Olympus, CKX53).
Test methods: • 1) Cell inoculation: After cell resuscitation, the cells were inoculated into 96-well plates when the plating rate reached around 60%, and were incubated overnight in an incubator (37°C, 5% CO2). • 2) Test grouping: The blank group, solvent control group, positive control group, and sample group were set for the test. In the sample group, 7 concentration gradients were set for each sample and 3 duplicate wells were set for each concentration gradient. • 3) Formulation of solutions: Sample working solutions at different concentrations were formulated based on the test concentrations of 0.0781 µM, 0.1563 µM, 0.3125 µM, 0.625 µM, 1.25 µM, 2.5 µM, and 5 µM. • 4) Administration: Administration was performed when the cell plating rate in the 96-well plates reached 50% to 60%. 200 µL of culture medium per well was added for the solvent control group; 200 µL of culture medium containing 10% DMSO per well was added for the positive control group; 200 µL of culture medium containing the sample at a corresponding concentration per well was added for the sample group; The blank group had no cell inoculation, for which only 200 µL of cell culture medium was added. After the administration was complete, the 96-well plates were incubated in an incubator (37°C, 5% CO2) for 24 h. • 5) Detection: After 24 h of cell incubation and culture, the supernatant was discarded, and MTT working solution (0.5 mg/mL) was added. Incubation was performed at 37°C for 4 h in the dark. After the incubation was completed, the supernatant was discarded and 150 µL DMSO was added to each well. The OD value was read at 490 nm. • 6) Calculation of relative viability of cells: Calculation was performed according to the formula below: Relative viability of cells = (Sample well OD−Blank well OD)/(Solvent control well OD−Blank well OD) × 100%. [formula]

SMILES	Collagen I elevation effect in the fibroblasts [1]	type I collagen (Collagen I) content compared to the BC [1]	Elastin elevation effect in the fibroblasts (elastin (ELN))	elastin content compared to the BC (elastin (ELN))	HA elevation effect in the fibroblasts (hyaluronic acid (HA))	hyaluronic acid (HA) content compared to the BC (hyaluronic acid (HA))	Relative viability of cells [2]
CC(C)[C@@H]1NC(=O)[C@H](CCCCN)NC(=O)[C@H](Cc2c[nH]cn2)NC(=O)CNC(=O)[C@H](Cc2c[nH]c3ccccc23)NC(=O)[C@@H]2CCCN2C1=O [compound 710] (cyclo(GHKVPW))	110.87	significant increase	1207.29	significant increase	–	–	–
CC[C@H](C)[C@@H]1NC(=O)[C@H](Cc2ccccc2)NC(=O)[C@H](CC(C)C)NC(=O)[C@H](CCCCN)NC(=O)[C@H](Cc2c[nH]cn2)NC(=O)CNC1=O [compound 291] (cyclo(FIGHKL))	–	–	1177.19	significant increase	2477.91	significant increase	–
C[S+](C)[O-] [10% DMSO, DMSO]	–	–	–	–	–	–	0.30% and 1.87% and 1.62% and 1.17% and 0.61% and 2.07% and 0.54% and 0.43%
CC[C@H](C)[C@@H]1NC(=O)[C@H](CCCCN)NC(=O)[C@H](Cc2c[nH]cn2)NC(=O)CNC(=O)[C@@H]2CCCN2C(=O)[C@H](Cc2ccccc2)NC1=O [compound 214] (cyclo(FPGHKI))	42.51	significant increase	1050.82	significant increase	1965.3	significant increase	–
CC[C@H](C)[C@@H]1NC(=O)[C@H](CCCCN)NC(=O)[C@H](Cc2c[nH]cn2)NC(=O)CNC(=O)[C@@H]2CCCN2C(=O)[C@H](CCSC)NC1=O [compound 205] (cyclo(GHKIMP))	49.25	significant increase	1074.17	significant increase	2641.21	significant increase	–
CSCC[C@@H]1NC(=O)[C@@H]2CCCN2C(=O)[C@H](C(C)C)NC(=O)[C@H](CCCCN)NC(=O)[C@H](Cc2c[nH]cn2)NC(=O)CNC1=O [compound 707] (cyclo(GHKVPM))	66.21	significant increase	–	–	–	–	–
C[C@@H]1NC(=O)[C@H](CCCCN)NC(=O)[C@H](Cc2c[nH]cn2)NC(=O)CNC(=O)[C@@H]2CCCN2C(=O)[C@H](Cc2ccccc2)NC1=O [compound 52] (cyclo(AFPGHK))	–	–	1043.27	significant increase	2900.83	significant increase	–
CC(C)C[C@@H]1NC(=O)[C@H](CCCCN)NC(=O)[C@H](Cc2c[nH]cn2)NC(=O)CNC(=O)[C@H](C(C)C)NC(=O)[C@H](Cc2ccccc2)NC1=O [compound 297] (cyclo(FVGHKL))	52.28	significant increase	923.52	significant increase	2212.6	significant increase	–
CC[C@H](C)[C@@H]1NC(=O)[C@H](CC(C)C)NC(=O)[C@H](CCCCN)NC(=O)[C@H](Cc2c[nH]cn2)NC(=O)CNC(=O)[C@@H]2CCCN2C1=O [compound 268] (cyclo(GHKLIP))	61.46	significant increase	–	–	–	–	–
CC[C@H](C)[C@@H]1NC(=O)[C@H](CCCCN)NC(=O)[C@H](Cc2c[nH]cn2)NC(=O)CNC(=O)[C@@H]2CCCN2C(=O)[C@H](Cc2c[nH]c3ccccc23)NC1=O [compound 232] (cyclo(GHKIWP))	67.93	significant increase	1001.84	significant increase	–	–	–
CC(C)[C@@H]1NC(=O)[C@H](C)NC(=O)[C@H](Cc2ccccc2)NC(=O)[C@H](CCCCN)NC(=O)[C@H](Cc2c[nH]cn2)NC(=O)CNC1=O [compound 414] (cyclo(AVGHKF))	40.54	significant increase	1124.58	significant increase	1926.61	significant increase	–
CC(C)C[C@@H]1NC(=O)[C@H](CCCCN)NC(=O)[C@H](Cc2c[nH]cn2)NC(=O)CNC(=O)[C@@H]2CCCN2C(=O)[C@H](C)NC1=O [compound 250] (cyclo(APGHKL))	55.85	significant increase	1051.64	significant increase	2142.56	significant increase	–
CSCC[C@@H]1NC(=O)[C@H](CCCCN)NC(=O)[C@H](Cc2c[nH]cn2)NC(=O)CNC(=O)[C@@H]2CCCN2C(=O)CNC1=O [compound 340] (cyclo(GHKMGP))	90.07	significant increase	1304.87	significant increase	–	–	–
CC(C)C[C@@H]1NC(=O)[C@H](CCCCN)NC(=O)[C@H](Cc2c[nH]cn2)NC(=O)CNC(=O)[C@H](C)NC(=O)[C@H](Cc2ccccc2)NC1=O [compound 289] (cyclo(AGHKLF))	41	significant increase	1034.59	significant increase	1978.48	significant increase	–
CC[C@H](C)[C@@H]1NC(=O)[C@H](CCCCN)NC(=O)[C@H](Cc2c[nH]cn2)NC(=O)CNC(=O)[C@@H]2CCCN2C(=O)[C@H](CC(C)C)NC1=O [compound 196] (cyclo(GHKILP))	–	–	1175.6	significant increase	2305.13	significant increase	–
